In PubChem BioAssay AID602217 (Sanford-Burnham Center for Chemical Genomics, 2012):
Activity calls are given as the source filed them.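 The calls were made as follows: active = IC50 at or below a set limit; inactive = the rest.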

Each compound was assayed on HL-1 cardiomyocytes, 2-deoxyglucose injury, ATPLite luminescence, 2 h (assay: 2-DG-induced HL-1 ATP loss suppression – cell-based, ATPLite luminescence, dose response (AID 602217);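 also: cells kept in glucose-free DMEM during the 2-deoxyglucose injury; potency of protection where actives preserve ATP signal against 2-deoxyglucose stress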).

Structure (SMILES)	IC50
COc1ccc(-n2cc(-c3ccccc3)c3c(N4CCOCC4)ncnc32)cc1	4.4 µM
CCOc1ccccc1Nc1nnc(SCc2nnc(-c3cc(OC)c(OC)c(OC)c3)o2)s1	14.6 µM
Cc1ccccc1N(C(=O)c1snc(C(N)=O)c1N)C(C(=O)NCc1ccccc1)c1ccc(O)cc1 (stereo not drawn)	> 79 µM (inactive)
N#Cc1c(-c2ccco2)cc(-c2cccnc2)nc1N	14.6 µM
COc1ccc(OC)c(/C=N/NC(=O)c2cc3c(OC)c(OC)ccc3[nH]2)c1	> 79 µM (inactive)
COc1ccc(-c2cnc3c(NC=O)cc(-c4cccc(NS(C)(=O)=O)c4)cn23)cc1OC	33.5 µM (inactive)
COCCN1Cc2cccc(C(=O)Nc3cccc(-c4nc5ccccc5[nH]4)c3)c2C1=O	8.5 µM
CC(=O)c1ccc(-c2cnc3c(NC=O)cc(-c4cccc(NS(C)(=O)=O)c4)cn23)cc1	> 79 µM (inactive)
O=S(=O)(c1ccccc1)N1CCN(c2nc(-c3cccnc3)nc3ccccc23)CC1	51.6 µM (inactive)
COc1cccc(-c2cnc3c(NC=O)cc(-c4cc(OC)c(OC)c(OC)c4)cn23)c1	> 79 µM (inactive)
Cc1ccc(-n2cc(-c3ccccc3)c3c(N4CCOCC4)ncnc32)cc1	7.85 µM
COc1ccc(COc2cc(-c3cccc(OC)c3)nc3ccc(NC(=O)c4cccnc4)cc23)cc1	5.96 µM
O=C(c1cc(=O)[nH]c2ccccc12)N1CCN(S(=O)(=O)c2ccc(Cl)cc2)CC1	58.3 µM (inactive)
CCOc1cc(/C=C/c2ccc3cccc([N+](=O)[O-])c3n2)ccc1OCC(=O)N(C)C	40.3 µM (inactive)
O=C(COC(=O)c1ccccc1C(=O)OCC(=O)NCCc1c[nH]c2ccccc12)NCCc1c[nH]c2ccccc12	> 79 µM (inactive)
COc1nc(N/N=C/c2cc3c(cc2Br)OCO3)nc(N2CCOCC2)n1	> 79 µM (inactive)
COc1cc(/C=C/c2nnc3c4ccccc4ncn23)cc(OC)c1OC	31.9 µM (inactive)
CC(C)OCCCNC(=O)CCC(=O)NNc1nc2ccccc2c2nc(-c3ccccc3)nn12	> 79 µM (inactive)
COC(=O)c1cc2ccccn2c2c(C(=O)OC)c(C(=O)OC)cc1-2	> 79 µM (inactive)
O=C(CN(c1ccc2c(c1)OCCO2)S(=O)(=O)c1ccccc1)Nc1ccc2c(c1)OCO2	> 79 µM (inactive)
CC(C)(C)NC(=O)c1cc(NC(=O)c2cccs2)cc(NC(=O)c2cccs2)c1	> 79 µM (inactive)
COC(=O)c1cc2c(-c3ccccc3)cc3ccccn3c-2c1C(=O)OC	> 79 µM (inactive)

Structure (SMILES)	IC50
COc1cc(-c2cc3nc(NCCOc4ccccc4)ccn3n2)cc(OC)c1OC	> 79 µM (inactive)
CC(=O)c1ccc(-c2ccc(C(=O)Nc3nc(-c4ccccn4)cs3)o2)cc1	> 79 µM (inactive)
Cc1[nH]c2ccccc2c1/C=N/NC(=O)c1cc(-c2cccs2)[nH]n1	> 79 µM (inactive)
COc1ccc(-c2cc(C(=O)N(C)Cc3ccc(OC)c(OC)c3OC)c3ccccc3n2)cc1OC	32.1 µM (inactive)
Fc1ccc(-n2cc(-c3ccccc3)c3c(N4CCOCC4)ncnc32)cc1	8.35 µM
COc1cc(CN2C[C@@H](CO)O[C@@H](n3cnc4c(Nc5ccccc5)ncnc43)C2)cc(OC)c1OC	> 79 µM (inactive)
COc1cc(OC)cc(-c2cc3nc(C)c(CCC(=O)Nc4nc(C)cs4)c(C)n3n2)c1	> 79 µM (inactive)
O=C(CNC(=O)c1[nH]cnc1C(=O)NC(c1ccccc1)c1ccccc1)OCc1ccccc1	> 79 µM (inactive)
COc1cc(C(=O)N/N=C/c2ccc(OC(=O)c3cccc(C)c3)c(OC)c2)ccc1O	> 79 µM (inactive)
COc1cccc(CN(C)C(=O)C(Cc2ccccc2)NC(=O)c2ccccc2)c1OC (stereo not drawn)	> 79 µM (inactive)
COc1ccc(NC(=O)c2cc(-c3ccccn3)nc3ccccc23)cc1S(=O)(=O)N(C)C	20.5 µM (inactive)
O=[N+]([O-])c1ccc(Nc2nc(N/N=C/c3cccc(F)c3)nc(N3CCCC3)n2)cc1	> 79 µM (inactive)
COc1cccc(-c2cnc3c(NC=O)cc(-c4cc(C)c(O)c(C)c4)cn23)c1	> 79 µM (inactive)
Cc1ccc(C)c(NC(=O)C(Sc2nc3ccccc3c(=O)n2CC(C)C)c2ccccc2)c1 (stereo not drawn)	1.14 µM
COc1cc(NC(=O)c2ccco2)c(OC)cc1NC(=O)c1cc(OC)c(OC)c(OC)c1	18.1 µM
COc1cc(OC)cc(C(=O)Nc2ccc(C(=O)Nc3ccccc3OC)cc2)c1	> 79 µM (inactive)
CC(=O)Nc1ccc(Nc2nc(-c3sc(NC(C)=O)nc3C)cs2)cc1	43.6 µM (inactive)
COC(=O)c1ccc(N)c(N=CC2=C(O)CC(C)(C)CC2=O)c1	> 79 µM (inactive)
COc1ccccc1OP(=O)(Nc1cccnc1)Oc1ccccc1OC	21.2 µM (inactive)
C[C@H](NC(=O)c1nc[nH]c1C(=O)NCC(=O)OCc1ccccc1)c1ccccc1	> 79 µM (inactive)
COc1cccc(-c2cnc3c(NC=O)cc(-c4ccc(O)c(OC)c4)cn23)c1	27.4 µM (inactive)
